Measured values: ChEMBL document CHEMBL1135555 (Bioorg Med Chem Lett, 2002)

Legend:
[1] = Inhibition of Phosphodiesterase 3 from rat diaphragm
[2] = biological target: cGMP-specific 3',5'-cyclic phosphodiesterase (Rattus norvegicus, UniProt O54735); experiment: Inhibition of Phosphodiesterase 5 from rat diaphragm

Row | Compound | IC50 [1] [nM] | IC50 [2] [nM] | Ki [2] [nM]
1 | C=C(C)C(CCC(C)(C)O)Cc1c(O)cc(OC)c2c1O[C@H](c1ccc(O)cc1O)[C@H](O)C2=O (stereo partly specified) | 12800 | 10600 | –
2 | C=C(C)[C@H](CCC(C)(C)O)Cc1c(O)cc(OC)c2c1O[C@H](c1ccc(O)cc1O)CC2=O [KURARINOL] | 2950 | 6100 | –
3 | COc1cc(O)c(CC=C(C)C)c2oc(-c3ccc(O)cc3)c(O)c(=O)c12 [SOPHOFLAVESCENOL] | 410 | 13 | 5
4 | C=C(C)[C@H](CC=C(C)C)Cc1c(O)cc(OC)c(C(=O)/C=C/c2ccc(O)cc2O)c1O [KURAIDIN] | 1250 | 640 | –
5 | C=C(C)C(CCC(C)(C)O)Cc1c(O)cc(OC)c2c1O[C@H](c1ccc(O)cc1O)[C@@H](O)C2=O (stereo partly specified) | 13500 | – | –
6 | Cc1[nH]c(=O)c(C#N)cc1-c1ccncc1 [MILRINONE] | 740 | – | –
